Patent US6465522B1, “Anthraquinone anticancer drugs” (priority 1998, dated 2002)
Where two headings read alike, the source gives them in different places. One block for each compound: values may come before it.

Legend:
Type in all cases: cell-based
2780CP = assay: MTT growth inhibition, 2780CP cisplatin resistant ovarian cancer cell line
Procedure: (§1) The cells used for the anticancer activity measurements were the parental ovarian cell line designated as A2780, the doxorubicin-resistant variant designated as 2780AD, and the cisplatin-resistant variant designated as 2780CP (also known as CP70). Drug sensitivity in these cell lines was measured by the standard MTT assay (Carmichael et al., 1987, Cancer Research, 47: 936) with a 24 hour drug exposure time. The values obtained are mean values of triplicate measurements.

A2780 = assay: MTT growth inhibition, A2780 parental ovarian cancer cell line; conditions: MTT assay, 24 hour drug exposure, mean of triplicate, read-out: Growth Inhibition of Ovarian Cancer Cell Lines (IC50/nM) A2780
Procedure: as §1

2780AD = assay: MTT growth inhibition, 2780AD adriamycin (doxorubicin) resistant ovarian cancer cell line
Procedure: as §1

SKOV-3 = assay: Antitumour activity in drug resistant ovarian cancer cell line SKOV-3; conditions: SKOV-3 drug resistant ovarian cancer cell line
CH1cisR = assay: Antitumour activity in drug resistant ovarian cancer cell line CH1cisR
[1] = 2780CP cisplatin resistant variant, MTT assay, 24 hour drug exposure, mean of triplicate, read-out: Growth Inhibition of Ovarian Cancer Cell Lines (IC50/nM) 2780CP
[2] = 2780AD adriamycin resistant variant, MTT assay, 24 hour drug exposure, mean of triplicate, read-out: Growth Inhibition of Ovarian Cancer Cell Lines (IC50/nM) 2780AD

IC50 (2780CP; [1]): 13.3 ± 0.9 nM | IC50 (2780AD; [2]): 4860 ± 510 nM
Compound: COc1cccc2c1C(=O)c1c(O)c3c(c(O)c1C2=O)C[C@@](O)(C(=O)CO)C[C@@H]3O[C@H]1C[C@H](N)[C@H](O)[C@H](C)O1 [Adriamycin, adriamycin]
IC50 (A2780; Homo sapiens): 5 ± 1.1 nM

Compound: N.N.[Cl][Pt][Cl] [Cisplatin, cisplatin]
IC50 (2780CP; [1]): 2620 ± 730 nM | IC50 (A2780): 340 ± 60 nM | IC50 (2780AD; [2]): 3020 ± 220 nM

Compound: CN(C)CCNc1ccc(NCCN(CCCl)CCCl)c2c1C(=O)c1c(O)ccc(O)c1C2=O [Compound (2)]
IC50 (2780CP; [1]): 11.8 ± 1.4 nM | IC50 (2780CP; 2780CP, read-out: IC50 2780CP): 12 nM | IC50 (SKOV-3): 490 nM | IC50 (A2780): 4 ± 0.6 nM | IC50 (CH1cisR): 19 nM | IC50 (2780AD; 2780AD, read-out: IC50 2780AD): 16 nM
